Measured values taken from publication PMC6940354, “Comparative Assessment of the New PDE7 Inhibitor – GRMS-55 and Lisofylline in Animal Models of Immune-Related Disorders: A PK/PD Modeling Approach” (Pharmaceutical Research, 2020).
In brackets after ≈: the same amount, converted by molar mass.

Assays:
[1] = tested on: TNF-α release from LPS-stimulated whole rat blood; assay: Inhibition of LPS-induced TNF-α release in whole rat blood; assay type: cell-based; conditions: LPS 10 mg L^−1, 6 h incubation, compared to LPS-treated control
Experimental: Stimulation of whole rat blood by LPS was performed on 96-well plates. […] Contents of each well (200 μL) consisted of heparinized rat blood containing 10 U heparin mL^−1 diluted with RPMI-1640 medium at a ratio of 1:1 (v/v). All compounds were dissolved in DMSO and added to blood (the final DMSO concentration in blood was 0.5%) 15 min prior to the addition of LPS dissolved in RPMI-1640 medium to achieve the LPS concentration of 10 mg L^−1. Both, LPS and DMSO were also added to control wells at the same concentrations. Additional control samples (for testing baseline TNF-α levels in blood) consisted of DMSO (0.5%) without LPS. The incubation was performed at 37°C in a humidified atmosphere of 5% CO2 in an MCO-5 AC-PE incubator (PHCbi, Japan). After 6 h of incubation, the plates were centrifuged for 10 min using PlateFuge MicroCentrifuge (Benchmark Scientific, USA). The individual plasma samples were harvested and stored at −80°C until analysis.
(§1) TNF-α levels in LPS-stimulated rat blood in vitro and in rat plasma samples from the in vivo studies were analyzed by the Rat TNF-α Quantikine ELISA Immunoassay Kit (R&D Systems, USA) according to the manufacturer’s instructions. The assay was linear at the range of 12.5–800 pg mL^−1. Levels of TNF-α in mice serum were measured by ELISA Kits for Tumor Necrosis Factor Alpha (Cloud-Clone Corp., USA). This assay was linear at the range of 15.6–1000 pg mL^−1. Absorbance was measured at 450 nm using a POLARstar Omega multi-mode microplate reader (BMG LABTECH, Germany).

[2] = tested on: TNF-α plasma levels in male Wistar rats with LPS-induced endotoxemia; assay: LPS-induced endotoxemia in rats, PK/PD model of plasma TNF-α; assay type: in vivo, rat
Experimental: Male Wistar rats were implanted with catheters (SAI Infusion Technologies, USA) into the jugular vein and after a two-day recovery period they were administered with LPS dissolved in saline at a dose of 1 mg kg ^−1 into the tail vein simultaneously with one of the investigated compounds. […] The doses of the compounds were selected based on the literature data or results of our previous experiments. Each control group received LPS at the same IV dose and an appropriate volume of corresponding vehicle. […] The plasma samples were collected and stored at −80°C until analysis.
as §1
PK/PD and PK/PD/DIS progression models were developed considering the mechanism of action of the investigated compounds, the mechanisms of disease progression in the case of CIA, and the subsequent stages leading to TNF-α release in the case of LPS-induced endotoxemia. Various numbers of transit compartments were tested during development of the models, and the final models were chosen based on the goodness-of-fit criteria, such as AIC, SBC, a visual inspection of the fitting, and parameter precision. Estimated values of pharmacokinetic parameters were fixed during PK/PD and PK/PD/DIS progression model fitting procedures. […] PK/PD and PK/PD/DIS progression modeling were performed in ADAPT 5 software using the weighted least squares algorithm.
Therefore, as a result of PK/PD analysis, three sets of pharmacodynamic parameters were obtained based on the data from the three individual experiments.
The applied model is a modified indirect response model ([19]) with implemented transit compartments (T1-T4) that describe the delay of the observed pharmacodynamic response. In this scheme τ is the mean transit time, kin is the time limited (from 0 to tlag) zero-order rate constant of production of a TNF-α precursor (e.g., TNF-α mRNA). Different numbers of transit compartments were tested during the model development, but the best fit was observed using four transit compartments.
All Imax values were fixed to 1.

[3] = tested on: LPS-stimulated murine macrophages (RAW263.7 cells); parameters: method as in PMID 14998551; conditions: cited from earlier work
[4] = tested on: TNF-α release in mice model of endotoxemia; parameters: method as in PMID 20389149; conditions: mice model of endotoxemia ref [19]; cited from earlier work
cAMP degradation = tested on: cAMP degradation; parameters: method as in PMID 28730281; conditions: rats, cAMP as a marker of pharmacological response ref [9]; cited from earlier work
PDE4 = tested on: PDE4; parameters: method as in PMID 14998551; conditions: ref [31]; read-out: IC50PDE4; cited from earlier work
[5] = tested on: LPS-stimulated human PBMC; parameters: method as in PMID 14998551; conditions: LPS-stimulated human PBMC ref [31]; read-out: IC50, TNF-α production; cited from earlier work

CC(=O)CCCCn1c(=O)c2c(ncn2C)n(C)c1=O [PTX, Pentoxifylline]
Reduction of TNF-α levels in LPS-stimulated whole rat blood (result in words) [1]: significantly and with similar potency reduced
IC50 ([2]; Rattus norvegicus, iv, read-out: IC50, concentration of compound producing 50% of Imax (inhibition of TNF-α release in vivo), Final estimate (CV%), plasma concentration, PK/PD model, Imax fixed to 1, male Wistar rats, LPS 1 mg kg^−1 IV, IV GRMS-55 20, rolipram 5, (±)-LSF and PTX 40 and 80 mg kg^−1): 14 µg/mL (≈ 50.3 µM)
activity in inhibiting TNF-α release in vivo, times lower than that of rolipram ([2]; ratio of IC50 values to rolipram): ~ 39 times
TNF-α production (result in words) ([3]; RAW263.7 cells, concentrations of 500 and 1000 μM ref [31]): significantly inhibited TNF-α production
IC50 value for the inhibition of TNF-α release [4]: 0.47 µg/mL
IC50 value for the inhibition of cAMP degradation (cAMP degradation): 4.48 µg/mL

C[C@@H](O)CCCCn1c(=O)c2c(ncn2C)n(C)c1=O [R-(−)-LSF]
IC50 value for the inhibition of TNF-α release [4]: 1.61 µg/mL

COc1ccc(C(=O)Nc2c(Cl)cncc2Cl)cc1OC1CCCC1 [RP73401]
IC50 (PDE4): 1 nM
IC50 ([3]; LPS-stimulated murine macrophage cell line ref [31], read-out: IC50, TNF-α production): 2.7 nM
IC50 [5]: 3.3 nM
